{"source": "patent US5393738A", "about": "(Sandoz, Ltd., priority 1986, dated 1995)", "key": {"[1]": {"test": "Biopharmaceutical properties of SMS: first pass effect and excretion", "assay_type": "in vivo", "settings": "rat"}, "[2]": {"test": "Stability of SMS in gastric juices", "assay_type": "in vitro ADME"}}, "note": "Read-outs that look alike come from different tables or passages of the source."}
{"smiles": "C[C@@H](O)[C@@H]1NC(=O)[C@H](CCCCN)NC(=O)[C@@H](Cc2c[nH]c3ccccc23)NC(=O)[C@H](Cc2ccccc2)NC(=O)[C@@H](NC(=O)[C@H](N)Cc2ccccc2)CSSC[C@@H](C(=O)N[C@H](CO)[C@@H](C)O)NC1=O", "note": "[SMS, octreotide]", "values": [{"measurement": "dose excreted", "setting": "[1]; bile, read-out: excreted as the unchanged drug in the bile", "result": "~80", "unit": "%"}, {"measurement": "dose excreted", "setting": "[1]; urine, read-out: excreted as the unchanged drug in the urine", "result": "~20", "unit": "%"}, {"measurement": "stability in gastric juices", "setting": "[2]", "result": "extremely stable"}]}
